pIC50: −log10 of the molar value. Where “and” joins values, the source holds several entries; their conditions need not be identical. Equal values may be shown once.
How the values were obtained:
[1] = system: cAMP generation in adult mouse cardiomyocytes; experiment: cAMP generation in isolated adult mouse cardiomyocytes; assay type: cell-based; conditions: 10 μM M119 5 min pre-treatment, 100 nM isoproterenol 15 min; result in words
Procedure: Isolated cardiomyocytes were treated with vehicle (V) or 100 nM isoproterenol (I) for 15 minutes in the presence or absence of a 5 minute pre-treatment with 10 μM M119 (M). Forskolin treatment, which directly activates adenylyl cyclase, was used as a control.

[2] = system: human μ opioid receptor (hMOR-CHO cells); experiment: Total inositol phosphate assay in hMOR-CHO cells; assay type: cell-based; conditions: 10 μM; result in words
Procedure: Chinese hamster ovary (CHO) cells stably expressing either the human κ (hKOR-CHO), δ (hDOR-CHO)(L. Toll, Stanford Research Institute, Palo Alto, Calif.) or μ (hMOR-CHO)(G. Uhl, National Institute on Drug Abuse, Baltimore, Md.) opioid receptor were used in the experiments. Cells in 6-well plates were labeled by adding 4 μCi of [^3H]inositol for 24 hr in inositol-free F-10 media, without serum. After labeling, LiCl was added directly to the labeling media at a final concentration of 10 mM. Ligands or peptides were added at the same time. The final volume of each well was 1 mL. The plates were put back in to the incubator at 37° C. for 30 min after which time the medium was aspirated and the plates were washed twice with 1× PBS. Ice-cold 50 mM formic acid, 1 mL, was added to the plates which were placed in the cold room at 4° C. for 30 min. After the incubation, the contents of the plates were applied to Dowex AG1-X8 columns and allowed to flow all the way through the column. The columns were washed, twice each, with 50 and 100 mM formic acid, for a total of four washes, followed by elution of the IP-containing fraction with 3 mL of 1.2 M ammonium formate/0.1 M formic acid. The eluted fraction was mixed with Scintisafe scintillation fluid, for high salt, and counted. The data are represented as the fold increase over control in total inositol phospates. All experiments were repeated three times and performed in duplicate. Control cells for each experiment were labeled with [^3H]inositol and LiCl, in the same manner as the treatment groups.

[3] = target: T1, Gαi1-Gβ1γ2 interaction (UniProt P54311+P63212); experiment: Flow cytometry competition for FITC-Gαi1 binding to immobilized b-Gβ1γ2
T1 construct: made in house; host or cells: b-βγ: Sf9 insect cells
Procedure: (2003) supra; Sarvazyan, et al. (1998) J. Biol. […] Fluorescein-labeled Ga^ (Fan) was prepared in accordance with standard methods (Sarvazyan, et al. (1998) supra). Assays were used to determine peptide effects on Gα-Gβγ interactions included competition and dissociation assays (Ghosh, et al. (2003) supra). […] The bead-associated fluorescence was then recorded in a BD Biosciences […] flow cytometer. Data was corrected for background fluorescence and fit with a sigmoid dose response curve using Graph Pad Prism 4. To measure dissociation of Fan from b-Gβaγ2, 100 pM of Fa^ was incubated with 50 pM immobilized b-Gβ1γ2 at room temperature for 15-20 minutes.

[4] = system: naloxone-precipitated morphine withdrawal in mice; experiment: Acute morphine physical dependence (naloxone-precipitated jumping); assay type: in vivo, mouse; conditions: morphine 100 mg/kg s.c. −4 hr; M119 100 nmol i.c.v. 30 min before naloxone 10 mg/kg i.p.
Procedure: Prior to the administration of naloxone (30 min) mice were injected with vehicle, i.c.v. Withdrawal was precipitated by an injection of the opioid antagonist, naloxone (10 mg/kg, i.p.). Mice were immediately placed in a clear cylinder and observed for 15 min. The number of vertical jumps was recorded during this time.

[5] = system: ERK1 and ERK2 activation in differentiated HL60 cells; experiment: fMLP-induced ERK1 and ERK2 activation in differentiated HL60 cells; assay type: cell-based, human; conditions: 10 μM compound, 1 μM fMLP, result in words
Procedure: (§1) Cells were pretreated with DMSO or 10 μM compounds for 5 min prior to stimulation with 250 nM fMLP. […] Normalized peak Ca^2+ responses were pooled from three independent experiments each (mean±SEM). Cells were pretreated with DMSO (▪) or compounds (▴) for 5 min prior to stimulation. FIG. 5C is the same as A except 10 μM M201 was tested. […] Differentiated HL60 cells were treated with 10 μM compound prior to stimulation with 250 nM fMLP. Translocation of endogenous GRK2 was determined by Western blotting with a GRK2 antibody and quantitative chemiluminescence. Data are mean±SEM from 5 experiments, * P<0.05, **P<0.01 ANOVA. […] Differentiated HL60 cells stably over-expressing GFP-PHAkt were treated with 10 μM compound prior to stimulation with 100 nM fMLP. Translocation of GFP-PHAkt to the membrane was determined by Western blotting with an anti-GFP antibody and quantitative chemiluminescence. Data are mean±SEM from 4 experiments. *** P<0.001 ANOVA. […] Differentiated HL60 cells were pretreated with 10 μM of compound prior to stimulation with 1 μM fMLP for 5 min. Levels of phosphorylated and total ERK were determined by Western blotting.

[6] = system: acute morphine antinociceptive tolerance in mice; experiment: Acute morphine antinociceptive tolerance (repeated i.c.v. dosing, tail-flick); assay type: in vivo, mouse
[7] = system: GRK2 translocation in differentiated HL60 cells; experiment: fMLP-dependent GRK2 translocation to membrane in differentiated HL60 cells; assay type: cell-based, human; conditions: 10 μM compound, 250 nM fMLP; result in words
Procedure: as §1

[8] = system: opioid-induced antinociception in mice; experiment: 55° C. warm-water tail-flick antinociception; assay type: in vivo, mouse
[9] = system: carrageenan-induced paw edema in mice; experiment: Carrageenan-induced paw edema and neutrophil abundance

With O=C(O)C1CCCCC1c1c2ccc(=O)c(O)c-2oc2c(O)c(O)ccc12 (stereo not shown) [Compound M119, cyclohexanecarboxylic acid, 2-(4,5,6-trihydroxy-3-oxo-3H-xanthen-9-yl)-(9cl)] the “effect on cAMP generation at baseline and with isoproterenol” value [1] was “enhanced”, the “effect of compound by itself on IP production” value [2] was “no effect by itself” and the “effect on DAMGO- and morphine-dependent IP production” value [2] was “significantly attenuated”. For the same compound, the pIC50 [3] was 6.40, the “interactions of Gα subunit with Gβγ subunits” value ([3]; result in words) was “blocked” and the “number of vertical jumps in the 15-min counting period” value [4] was 23±14. The “effect on fMLP-induced activation of ERK1 and ERK2” value [5] was “did not block”, the “effect on fMLP-induced activation of ERK1 and ERK2” value ([5]; listed as NSC119910) was “without interfering” and the “ED50 of morphine co-administered with M119” value ([6]; 6 hr) was 0.22 nmol. The “ED50 of morphine co-administered with M119” value ([6]; time 0) was 0.16 nmol, the “effect on fMLP-dependent GRK2 translocation to the membrane fraction” value [7] was “substantially inhibited” and the “ED50 of Deltorphin II in the presence of M119” value ([8]; M119 100 nmol i.c.v.) was 11 nmol. For the same compound, the “ED50 of DAMGO co-administered with M119” value ([8]; mouse, in vivo) was 0.01 nmol, the “ED50 of DPDPE with M119” value ([8]; mouse, in vivo) was 5.4 nmol and the “ED50 of U50,488 with M119” value ([8]; mouse, in vivo) was 17 nmol. For the same compound, the “ED50 of morphine co-administered with the compound” value ([8]; mouse, in vivo) was 0.065 nmol and 0.069 (0.023-0.201) nmol, the “Percent Antinociception ± S.E.M.” value ([8]; mouse, in vivo) was 100 ± 0.0% and 79.3 ± 9.1% and 64.4 ± 10.0% and 55.3 ± 12.7% and the “effect of compound alone on baseline antinociception” value ([8]; mouse, in vivo) was “no effect”. The “leftward shift in the DAMGO dose-response curve” value ([8]; mouse, in vivo) was 7 fold, the “shift in the U50,488 dose-response curve” value ([8]; mouse, in vivo) was 2 fold and the “shift of morphine ED50 / increase in analgesic potency of morphine” value ([8]; mouse, in vivo) was 11 fold. For the same compound, the “leftward shift of systemic morphine ED50” value ([8]; mouse, in vivo, 100 mg/kg) was 4 fold.

In the case of O=C(O)c1ccccc1-c1c2ccc(=O)c(O)c-2oc2c(O)c(O)ccc12 (racemic) [Gallein], the “reduction of number of neutrophils in the edematous fluid” value ([9]; 100 mg/kg i.p., 2 h after carrageenan) was “approximately half”, the ED50 ([9]; Mus musculus, ip, read-out: ED50 for inhibiting paw edema) was about 20 mg/kg and the “effect on carrageenan-induced paw edema” value ([9]; i.p. 1 h before carrageenan, gallein 100 mg/kg, indomethacin 2.5 mg/kg, result in words) was “reduced paw edema to levels comparable with that of indomethacin”. For the same compound, the “reduction of exudate volume” value ([9]; i.p. pretreatment, 2 h after carrageenan) was “approximately 75%”, the “reduction of paw swelling” value ([9]; oral gavage 30 mg/kg 1 h before carrageenan, 3 h after carrageenan) was 40% and the “effect on paw thickness in the absence of carrageenan” value ([9]; result in words) was “no effect”.

Source: patent US8975259B2, “Compositions and methods for inhibiting G protein signaling” (University of Rochester, priority 2007, dated 2015)
